The values below come from US10590128B2, “6,7,8,9-tetrahydro-5H-pyrido[2,3-d]azepine dopamine D3 ligands” (Pfizer Inc., priority 2016, dated 2020).

The target in assay [1] is human dopamine D3 receptor (hD3R) (Homo sapiens, UniProt P35462). As to the kind of experiment: Human D3 receptor binding assay ([^3H]-7-OH-DPAT). Particulars: CHO cells expressing hD3R, geometric mean of 2-5 determinations unless marked b (single determination), read-out: hD3 in CHO cells Ki. On the procedure: (§1) Human D2 Receptor and Human D3 Receptor Binding Assays:
(§2) These determined ligand and tissue concentrations were utilized in time course studies to determine linearity and equilibrium conditions for binding. […] The hD2R assay buffer contains 50 mM Tris (pH 7.4 @ 37° C.), 100 mM NaCl and 1 mM MgCl2. The hD3R assay buffer consists of 50 mM Tris (pH 7.4 at 37° C.), 120 mM NaCl, 5 mM MgCl2, 5 mM KCl and 2 mM CaCl2. Competitive binding experiments were initiated by the addition of 200 μL of the respective cell homogenate to 96-well plates containing […] test drugs (10 concentrations using ½ log dilutions) and 50 μL of ^3H-radioligand for a final volume of 250 μL. Non-specific binding was determined by radioligand binding in the presence of a saturating concentration of Haldol (10 μM). After the 20 minute incubation at 37° C., assay samples were rapidly filtered through Unifilter-96 GF/B PEI-coated filter plates and rinsed with ice-cold 50 mM Tris buffer (pH 7.4 at 4° C.). […] The IC50 value (concentration at which 50% inhibition of specific binding occurs) was calculated by linear regression of the concentration-response data in ActivityBase. Ki values were then calculated according to the Cheng-Prusoff equation:
(§3) [formula] where [L]=concentration of free radioligand and Kd=dissociation constant of radioligand for D3 receptor or D2 receptor.

For assay [2], the target named is human dopamine D2 receptor (hD2R) (Homo sapiens, UniProt P14416). In words: Human D2 receptor binding assay ([^3H]-Spiperone). To be noted: CHO cells expressing hD2R, geometric mean of 2-5 determinations unless marked b (single determination). On the procedure: as §1, §2, §3
Sequence of human dopamine D2 receptor (hD2R) (P14416 whole entry): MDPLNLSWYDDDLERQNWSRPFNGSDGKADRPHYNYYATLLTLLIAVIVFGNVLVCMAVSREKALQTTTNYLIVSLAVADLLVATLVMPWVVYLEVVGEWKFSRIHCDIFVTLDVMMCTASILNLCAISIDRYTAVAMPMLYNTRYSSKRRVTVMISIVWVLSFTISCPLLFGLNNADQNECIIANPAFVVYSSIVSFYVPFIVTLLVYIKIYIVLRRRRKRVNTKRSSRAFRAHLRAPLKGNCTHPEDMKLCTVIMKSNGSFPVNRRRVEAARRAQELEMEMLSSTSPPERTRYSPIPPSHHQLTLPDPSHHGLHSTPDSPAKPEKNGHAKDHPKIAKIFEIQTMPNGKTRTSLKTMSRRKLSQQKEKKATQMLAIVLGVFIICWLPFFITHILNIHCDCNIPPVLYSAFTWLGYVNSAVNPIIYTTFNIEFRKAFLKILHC

Sequence of human dopamine D3 receptor (hD3R) (P35462 whole entry): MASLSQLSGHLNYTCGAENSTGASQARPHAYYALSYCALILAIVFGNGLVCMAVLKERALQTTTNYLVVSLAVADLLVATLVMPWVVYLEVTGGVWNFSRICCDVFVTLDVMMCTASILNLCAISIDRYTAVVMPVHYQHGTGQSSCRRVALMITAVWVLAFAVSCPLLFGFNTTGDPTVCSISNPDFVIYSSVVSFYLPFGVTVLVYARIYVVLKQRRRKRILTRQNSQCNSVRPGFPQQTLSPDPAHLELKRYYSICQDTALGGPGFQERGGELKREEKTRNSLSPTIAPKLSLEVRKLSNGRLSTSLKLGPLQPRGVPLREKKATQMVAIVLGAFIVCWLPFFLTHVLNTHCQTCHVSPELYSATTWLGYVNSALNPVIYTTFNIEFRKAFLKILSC

One may read the Ki as the equilibrium dissociation constant of an inhibitor or competing ligand from its target. In the case of `COc1nc2c(cc1NS(=O)(=O)c1ccc(C3CCOCC3)cc1)CCN(C)CC2` [Example 4, N-(2-Methoxy-7-methyl-6,7,8,9-tetrahydro-5H-pyrido[2,3-d]azepin-3-yl)-4-(tetrahydro-2H-pyran-4-yl)benzenesulfonamide], the Ki is 1.53 nM in assay [1] and 104 nM in assay [2].

On to `COc1nc2c(cc1NS(=O)(=O)c1ccc3c(c1)CCCO3)CCN(C)CC2` [Example 31, N-(2-methoxy-7-methyl-6,7,8,9-tetrahydro-5H-pyrido[2,3-d]azepin-3-yl)-3,4-dihydro-2H-chromene-6-sulfonamide], for which the inhibition constant Ki came to 1.24 nM in assay [1] and 564 nM in assay [2].

`COc1nc2c(cc1NS(=O)(=O)c1ccc(C3CC(F)(F)CCO3)cc1)CCN(C)CC2` (single isomer, unassigned) [Example 42]: the Ki in assay [1] came to 5.91 nM; in assay [2], 402 nM.

Take `CCN1CCc2cc(NS(=O)(=O)c3ccc4c(c3)CC(C)O4)c(OC)nc2CC1` (stereo not drawn) [Example 67, N-(7-ethyl-2-methoxy-6,7,8,9-tetrahydro-5H-pyrido[2,3-d]azepin-3-yl)-2-methyl-2,3-dihydro-1-benzofuran-5-sulfonamide]: the Ki worked out at 4.02 nM in assay [1] and 660 nM in assay [2].

In the case of `COc1nc2c(cc1NS(=O)(=O)c1ccc(C3(OC)CCCC3)nc1)CCN(C)CC2` [Example 100, 6-(1-methoxycyclopentyl)-N-(2-methoxy-7-methyl-6,7,8,9-tetrahydro-5H-pyrido[2,3-d]azepin-3-yl)pyridine-3-sulfonamide], the inhibition constant (Ki) amounted to 6.35 nM in assay [1] and 663 nM in assay [2].

Consider `CCN1CCc2cc(NS(=O)(=O)c3ccc4c(c3)CCCO4)c(OC)nc2CC1` [Example 58, N-(7-ethyl-2-methoxy-6,7,8,9-tetrahydro-5H-pyrido[2,3-d]azepin-3-yl)-3,4-dihydro-2H-chromene-6-sulfonamide], for which the Ki in assay [1] worked out at 4.4 nM; in assay [2], 760 nM.

Take `COc1nc2c(cc1NS(=O)(=O)c1ccc(OC3CCCC3)nc1C)CCN(C)CC2` [Example 128, 6-(cyclopentyloxy)-N-(2-methoxy-7-methyl-6,7,8,9-tetrahydro-5H-pyrido[2,3-d]azepin-3-yl)-2-methylpyridine-3-sulfonamide]: the Ki amounted to 1.24 nM in assay [1] and 4.07 nM in assay [2].

Take `CCO[C@H]1C[C@@](F)(c2ccc(S(=O)(=O)Nc3cc4c(nc3OC)CCN(CC)CC4)cc2)C1` [Example 48, 4-(trans-3-ethoxy-1-fluorocyclobutyl)-N-(7-ethyl-2-methoxy-6,7,8,9-tetrahydro-5H-pyrido[2,3-d]azepin-3-yl)benzenesulfonamide]: the Ki in assay [1] is 7.25 nM; in assay [2], 933 nM.

With `COc1nc2c(cc1NS(=O)(=O)c1ccc(CC3CCCC3)nc1)CCN(C)CC2` [Example 131, 6-(cyclopentylmethyl)-N-(2-methoxy-7-methyl-6,7,8,9-tetrahydro-5H-pyrido[2,3-d]azepin-3-yl)pyridine-3-sulfonamide], the Ki in assay [1] is 2.3 nM; in assay [2] it was 36.1 nM.

With `CCO[C@H]1C[C@@H](c2ccc(S(=O)(=O)Nc3cc4c(nc3OC)CCN(C)CC4)cc2)C1` [Example 21, 4-(cis-3-ethoxycyclobutyl)-N-(2-methoxy-7-methyl-6,7,8,9-tetrahydro-5H-pyrido[2,3-d]azepin-3-yl)benzenesulfonamide], the Ki in assay [1] was 0.967 nM; in assay [2] it was 25.5 nM.

Turning to `CCN1CCc2cc(NS(=O)(=O)c3ccc(C4CCOC4)cc3)c(OC)nc2CC1` (stereo not drawn) [Example 71, N-(7-ethyl-2-methoxy-6,7,8,9-tetrahydro-5H-pyrido[2,3-d]azepin-3-yl)-4-(tetrahydrofuran-3-yl)benzenesulfonamide], the Ki in assay [1] amounted to 4.84 nM; in assay [2], 754 nM.

In the case of `CCN1CCc2cc(NS(=O)(=O)c3ccc(Oc4ccccc4)nc3)c(OC)nc2CC1` [Example 60, N-(7-ethyl-2-methoxy-6,7,8,9-tetrahydro-5H-pyrido[2,3-d]azepin-3-yl)-6-phenoxypyridine-3-sulfonamide], the results for the Ki in assay [1] and in assay [2] were 2.94 nM and 395 nM, respectively.

Regarding `COc1nc2c(cc1NS(=O)(=O)c1cnc(C3CCCCC3)nc1)CCN(C)CC2` [Example 127, 2-cyclohexyl-N-(2-methoxy-7-methyl-6,7,8,9-tetrahydro-5H-pyrido[2,3-d]azepin-3-yl)pyrimidine-5-sulfonamide], the Ki in assay [1] is 32.2 nM; in assay [2], 457 nM.

`COc1nc2c(cc1NS(=O)(=O)c1cnc(OC3CCC3)nc1)CCN(C)CC2` [Example 116, 2-(cyclobutyloxy)-N-(2-methoxy-7-methyl-6,7,8,9-tetrahydro-5H-pyrido[2,3-d]azepin-3-yl)pyrimidine-5-sulfonamide]: the Ki is 7.17 nM in assay [1] and 379 nM in assay [2].

In the case of `COc1nc2c(cc1NS(=O)(=O)c1ccc(C3CCCC3)nc1)CCN(C)CC2` [Example 16, 6-cyclopentyl-N-(2-methoxy-7-methyl-6,7,8,9-tetrahydro-5H-pyrido[2,3-d]azepin-3-yl)pyridine-3-sulfonamide], the Ki in assay [1] stood at 2.41 nM; in assay [2], 122 nM.

On to `COc1nc2c(cc1NS(=O)(=O)c1ccc(Cl)cc1)CCN(C)CC2` [Example 27, 4-chloro-N-(2-methoxy-7-methyl-6,7,8,9-tetrahydro-5H-pyrido[2,3-d]azepin-3-yl)benzenesulfonamide], for which the Ki in assay [1] came to 3.26 nM; in assay [2] it was 400 nM.

Consider `COc1nc2c(cc1NS(=O)(=O)c1ccc(O[C@H]3CCOC3)cc1)CCN(C)CC2` [Example 91, N-(2-methoxy-7-methyl-6,7,8,9-tetrahydro-5H-pyrido[2,3-d]azepin-3-yl)-4-[(3S)-tetrahydrofuran-3-yloxy]benzenesulfonamide], for which the Ki was 3.37 nM in assay [1] and 208 nM in assay [2].

Take `COc1nc2c(cc1NS(=O)(=O)c1ccc(C3CC(F)CCO3)cc1)CCN(C)CC2` (single isomer, unassigned) [Example 106, 4-(4-fluorotetrahydro-2H-pyran-2-yl)-N-(2-methoxy-7-methyl-6,7,8,9-tetrahydro-5H-pyrido[2,3-d]azepin-3-yl)benzenesulfonamide]: the Ki in assay [1] was found to be 4.31 nM; in assay [2], 320 nM.

In the case of `CCN1CCc2cc(NS(=O)(=O)c3ccc(C4(F)CCCCC4)nc3)c(OC)nc2CC1` [Example 112, N-(7-ethyl-2-methoxy-6,7,8,9-tetrahydro-5H-pyrido[2,3-d]azepin-3-yl)-6-(1-fluorocyclohexyl)pyridine-3-sulfonamide], the Ki came out at 2.36 nM in assay [1] and 45.7 nM in assay [2].

On to `COc1nc2c(cc1NS(=O)(=O)c1ccc([C@@H]3CCCCO3)c(F)c1)CCN(C)CC2` [Example 111, 3-fluoro-N-(2-methoxy-7-methyl-6,7,8,9-tetrahydro-5H-pyrido[2,3-d]azepin-3-yl)-4-[(2S)-tetrahydro-2H-pyran-2-yl]benzenesulfonamide], for which the Ki was determined as 2.3 nM in assay [1] and 100 nM in assay [2].

For the compound `COc1nc2c(cc1NS(=O)(=O)c1ccc([C@H]3C[C@H](OC)C3)cc1)CCN(C)CC2` [Example 76, 4-(trans-3-methoxycyclobutyl)-N-(2-methoxy-7-methyl-6,7,8,9-tetrahydro-5H-pyrido[2,3-d]azepin-3-yl)benzenesulfonamide], the Ki came to 1.28 nM in assay [1] and 203 nM in assay [2].
